In patent US20240239787A1, “COMPOUNDS FOR USE IN THE TREATMENT OF CANCER” (Nanyang Technological University, priority 2021, published 2024):

How the values were obtained:
zebrafish larvae = test: Vascularization of vhl mutant and wide type zebrafish larvae (confocal imaging); format: in vivo; details: vhl^hu2117 crosses, 10 μM; non-treatment approximately one quarter
Experimental: Vasculature zebrafishes were obtained from natural crosses of the AB wild-type strain or vhl^+/hu2117 carriers on the fli1a:egfp^y1 transgenic background (which fluorescently marks the vasculature). JW4 and JQ1-CBT were dissolved in DMSO and the mixture was applied to embryos at equimolar concentration of 10 μM, with J252 (10 μM) and JQ1 (10 μM) used for the control experiments. […] The vascular plexus was imaged on a Zeiss LSM800 confocal microscope. Green: blood vessel tracker, .ex: 488 nm, .em: 520/30 nm; red: . ex: 564 nm, .em: 610/30 nm.

HIF-1α = HIF-1α level in hypoxic Hela cells (immunofluorescence imaging, Western blot); format: cell-based, human
Experimental: (§1) HeLa, Hek293T, MDA-MB-231, 4T1 or B16F10 cells (1.5×10^6 cells/mL) were treated with J266 (10 μM) for 6 h before incubating with JQ1-CBT at the indicated concentrations and time. This entire incubation was performed in normoxia condition. For NTR-moiety caged JW4, the cells were treated with JW4 (10 μM) 6 h prior to the addition of JQ1-CBT for a subsequent 12 h, and was performed entirely under hypoxic condition. Comparison of the downstream effect between the controls and drug-treated cells were completely executed in hypoxic condition. To work up, the cells were washed with cold PBS (pH 7.4) twice, and lysed with RIPA buffer supplemented with protease inhibitor cocktail and phosphatase inhibitor cocktail for 10 min at 4° C. Then, the lysed cells were collected and centrifuged at 13,500 rpm for 20 min at 4° C. The supernatant was collected and the protein concentration was analyzed by NanoDrop™ 2000/2000c Spectrophotometers. The lysate volumes were fine-tuned and loaded onto a Mini-PROTEAN® TGX™ 4-20% Precast Gel and was separated by SDS-PAGE. Then, the gel was transferred onto a PVDF membrane (100 V, 90 min, 4° C.), washed with TBS-T twice, and blocked with 1% BSA for 1 h at r.t. Next, the membrane was incubated with primary antibody overnight at 4° C., washed thrice with TBS-T, followed by incubation with goat anti-rabbit IgG (H+L) Secondary Antibody, HRP for 1 h. The membrane was supplemented with Radiance Q chemiluminescent ECL substrate and visualized using Amersham™ ImageQuant™ 800 biomolecular imager. B-Tubulin was used as the internal control.
Hela cells were plated at a density of 8×10^4 cells/mL in each well of the eight-well ibidi dishes before experiment. To sustain the hypoxia-induced factor throughout the drug treatment process, drug incubation was performed entirely in hypoxic chamber. […] The fluorescence of the alleviated HIF-1α expression upon drug treatment was visualized with Carl Zeiss LSM 800 microscopes (Hoechst 33258: Ex=405 nm, Em=460/50 nm; Alexa Fluor 488: Ex=488 nm, Em=515/30 nm; Alexa Fluor 594: Ex=561 nm, Em=617/20 nm).

zebrafish embryos = test: Yolk extension phenotype of zebrafish embryos; format: in vivo; details: 50 μM, hypoxia-normoxia alternating 8 h
Experimental: Wide type zebrafish embryos at 12 hpf was incubated with J252 (50 μM), JW4 (50 μM), or the mixture of JW4 (50 μM) and JQ1-CBT (50 μM) in hypoxia-normoxia alternative condition for 8 h at 28° C. After that, the embryos were further incubated in normoxia condition at 28° C. for 16 h before the yolk extension phenotypes were visualized under Zeiss LSM800 confocal microscope using bright-field channel. Embryos with JW4+JQ1-CBT treatment under normoxia were used as the controls.

BRD4 [1] = molecular target: T1, BRD4 (Homo sapiens, UniProt O60885); test: Hook effect: BRD4 degradation at extended degrader concentrations under hypoxia; format: cell-based; set-up: endogenous in cells
Experimental: as §1, with “The membrane was supplemented with Radiance Q chemiluminescent ECL substrate and visualized using Amersham™ ImageQuant™ 800 biomolecular imager. B-Tubulin was used as the internal control.” left out

[2] = tested on: broad range of enzymes and chemical agents; test: Selectivity of JW4 with or without NADH (LC-MS); format: biochemical; details: JW4 10 μM, reagents 0-40 μg/mL, 120 min
Experimental: A MS vial was sequentially added JW4 (10 μM), a reagent selected from sodium chloride, calcium chloride, ascorbic acid, glucose, cysteine, furin, CtsB, monoamine oxidase A (MAO-A) and monoamine oxidase B (MAO-B) (concentration range of 0-40 μg/mL), with or without the addition of NADH (0.5 mM) and the mixture was dissolved in PBS (pH 7.4, 10 mM) to a final volume of 500 μL. The mixture in the vial was vortexed and incubated at 37° C. for 120 min before it was subject to structural mass analysis.

BRD4 [3] = molecular target: T1, BRD4; test: BRD4 degradation by Western blot in HEK293T cells; format: cell-based; set-up: endogenous in cells; host or cells: HEK293T; details: 12 h
Description: The effective production of BRD4 heterobifunctional degraders in solution allowed us to investigate the function of ENCTAC components in biological applications. […] Particularly, NTR responsive JW4, the pomalidomide-containing compound that can target CRBN and is a universal E3 ligase, is expected to be uncaged through NTR-assisted nitro and GSH reduction once it enters the hypoxic cells. The exposed cysteine groups are then readily linked with the CBT moieties on the JQ1-CBT fragments via a specific bioorthogonal click reaction. Besides, the JQ1 warheads are presumed to be simultaneously bound to the BRD4 proteins, thus forming bifunctional degraders in-situ for localized proteolysis (FIG. 17a). […] As proof-of-concept, the control molecule J266 that can only respond to GSH but not NTR, was first introduced into the HEK293T cell line (for 6 h), with subsequent addition of the JQ1-CBT (for 12 h). After intracellular formation of the click-J252, the proteolysis process was observed by western blot analysis.
HeLa, Hek293T, MDA-MB-231, 4T1 or B16F10 cells (1.5×10^6 cells/mL) were treated with J266 (10 μM) for 6 h before incubating with JQ1-CBT at the indicated concentrations and time. This entire incubation was performed in normoxia condition. […] The supernatant was collected and the protein concentration was analyzed by NanoDrop™ 2000/2000c Spectrophotometers. […]

NTR = NTR enzymatic cleavage in vitro (LC-MS); format: biochemical
Description: Upon the exertion of external enzymatic stimuli, the NTR-responsive moiety undergoes self-immolation to unleash the amino group. Simultaneously, the presence of a reduction agent cleaves the -StBu group to liberate thiol group (—SH), creating the cleaved-J266. The presence of a readily reactive amino group and thiol group on cleaved-J266, with the co-insertion of JQ1-CBT would spontaneously induce the CBT-cysteine orthogonal click conjugation, shaping the luciferin-based structure in click-J252 for targeted protein disruption (FIG. 12a). To validate the kinetics of ENCTAC formation, JW4 was tested against the presence of ntr enzyme accompanied by the co-factor, NADH, at 37° C. across a range of time settings in LC-MS system. The formation of J252 in the presence of J266 and JQ1-CBT was also evaluated by LC-MS.
A MS vial was sequentially added JW4 (10 μM), nicotinamide adenine dinucleotide (NADH, 0.5 mM) and NTR (40 μg/mL), and the mixture was dissolved in PBS (pH 7.4, 10 mM) to a total volume of 500 μL. The mixture in the vial was vortexed and incubated at 37° C. with varying time control from 0-240 min. Structural mass analysis was performed to observe any molecular mass alteration.
A MS vial was sequentially added JW4 (10 μM) or J268 ([…]), NADH (0.5 mM) and NTR (concentration range of 0-40 μg/mL), and the mixture was dissolved in PBS (pH 7.4, 10 mM) to a final volume of 500 μL. The mixture in the vial was vortexed and incubated at 37° C. for 120 min before subjecting to structural mass analysis.

CK2α [4] = molecular target: T2, CK2α (Homo sapiens, UniProt P68400); test: Immunofluorescence staining of CK2α degradation over time; format: cell-based; set-up: Hek293T, MCF-7, and U205 cells were chosen as they can express different levels of CK2α protein; endogenous in cells; host or cells: HEK293T, MCF-7, U2OS; details: 0.1 or 1 μM, prolonged time (up to 20 h); Hek293T, MCF-7, U205 cells
T2 sequence (P68400 whole entry): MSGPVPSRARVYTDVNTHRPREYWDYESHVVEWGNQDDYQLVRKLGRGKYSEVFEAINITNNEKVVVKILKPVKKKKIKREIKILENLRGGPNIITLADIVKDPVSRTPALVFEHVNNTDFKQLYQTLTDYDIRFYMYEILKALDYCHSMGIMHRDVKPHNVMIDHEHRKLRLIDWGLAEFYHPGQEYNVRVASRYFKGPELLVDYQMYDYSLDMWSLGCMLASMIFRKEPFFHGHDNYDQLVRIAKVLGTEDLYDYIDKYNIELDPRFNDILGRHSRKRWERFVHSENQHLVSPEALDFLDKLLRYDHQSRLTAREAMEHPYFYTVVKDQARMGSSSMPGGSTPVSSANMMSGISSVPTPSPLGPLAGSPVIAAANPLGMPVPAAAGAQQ
Experimental: After the synthesis of T44 and T120 in Examples 1 and 2, their properties for protein degradation were examined. Hek293T, MCF-7, and U205 cells were chosen as they can express different levels of CK2α protein.
[…] Upon washing with PBS buffer thrice, the protein degradation was examined by immunofluorescence staining.
Each group of cells with density of 5×10^4 cells in each well of 8-well ibidi-dishes was treated with T120 or T44 at different concentration (0.1 μM or 1 μM) and time (0 h, 6 h, 18 h or 30 h). After treatment, the cells were fixed with 4% paraformaldehyde for 15 min, permeabilized with 0.25% Triton™ X-100 for 10 min and blocked with 5% BSA for 1 h at room temperature. The cells were then labelled with CK2α Rabbit polyclonal Antibody (Cell signalling, #2656) in 1% BSA and incubated for 3 h at r.t. Subsequently, Alexa Fluor 488-Goat Anti-Rabbit IgG secondary antibody was stained for 30 min at r.t. The nucleus was stained with Hoechst 33342 for 30 min at r.t. The degradation of CK2α protein was visualized with Carl Zeiss LSM 800 microscopes. (Hoechst 33342: Ex=405 nm, Em=460/50 nm; Alexa Fluor 488: Ex=488 nm, Em=515/30 nm).

CK2α [5] = molecular target: T2, CK2α; test: Concentration-dependent test for CK2α degradation (immunofluorescence / Western blot); format: cell-based; details: 24 h
Experimental: Based on the established method (From Merck), the lysates were loaded into the wells in a Mini-PROTEAN® TGX™ 4-20% Precast Gel and run for separation in 30 min under 200 V.
Cell lines including HEK293T and MCF-7 was incubated with varied concentrations of T44 or T120 for 24 h. After that, the protein level was evaluated by the above immunofluorescence staining protocol. Alternatively, the protein level was evaluated by Western blot analysis. Particularly, The lysates of each group of cells were collected and centrifuged at 12,000×g for 20 min at 4° C. Protein levels in supernatants were determined using Nanodrop and equalized to the same concentration and boiled for 10 min with SDS-PAGE sample loading buffer before being separated using SDS-PAGE and transferred to the PVDF membrane. The membrane was then blocked with 5% BSA-TBST blocking buffer overnight at 4° C. Subsequently, CK2α Rabbit polyclonal Antibody (Cell signalling, #2656) was incubated overnight at 4° C. in 1% BSA-TBST buffer. After series of washing, the goat-anti rabbit IGG (H&L) secondary antibody was added and incubated for 1 h in 1% BSA-TBST. All signals were visualized using […] (Image quant 800) system.

Row | CK2α antibody fluorescence signal in cells after incubation (CK2α [4]) | CK2α degradation effect, concentration dependence (CK2α [5]; HEK293T and MCF-7 cells) | CK2α fluorescence change with different concentrations (CK2α [5]; MCF-7 cells) | SMILES | vascularized larvae (zebrafish larvae) | HIF-1α protein level (HIF-1α) | yolk extension phenotype at 36 hpf (zebrafish embryos) | BRD4 degradation level (BRD4 [1]; 50 μM) | concentration at which decrease in efficiency of proteolysis started (hook effect) (BRD4 [1]; hypoxia) | cleavage by different components and enzymes [2] | BRD4 degradation by independent treatment (alone) (BRD4 [3]) | NTR enzymatic uncaging (self-immolation) followed by LC-MS (NTR; 10 μM substrate, NTR 40 μg/mL, NADH, 37° C., span of 4 h) | Kcat of NTR uncaging (NTR; NTR, NADH 0.5 mM, PBS pH 7.4, 37° C.) | Km (NTR; NTR, NADH 0.5 mM, PBS pH 7.4, 37° C., read-out: Km of NTR uncaging)
1 | – | – | – | Cc1sc2c(c1C)C(c1ccc(Cl)cc1)=N[C@@H](CC(=O)Oc1ccc3nc(C4N=C(C(=O)NCCOCCOCC(=O)Nc5cccc6c5C(=O)N(C5CCC(=O)NC5=O)C6=O)CS4)sc3c1)c1nnc(C)n1-2 (some centres unmarked) [J252] | 22.5% | able to downregulate | similarly less extension of yolk | around 20% | 5 µM | – | – | – | – | –
2 | – | – | – | CC(C)(C)SSC[C@@H](NC(=O)OCc1ccc([N+](=O)[O-])cc1)C(=O)NCCOCCOCC(=O)Nc1cccc2c1C(=O)N(C1CCC(=O)NC1=O)C2=O (some centres unmarked) [JW4, Pomalidomide-PEG-NTR] | – | did not induce HIF-1α elimination | – | – | – | no obvious cleavage except for NTR+NADH | did not induce any degradation | near to completion | 0.000262 s⁻¹ | 101 µM
3 | decreased fluorescence signals | cell-dependent | no obvious fluorescence change | COc1cc(/C=N/n2c(SC)nnc2-c2ccc(OCCOCCOCCOCc3cn(CCOCC(=O)Nc4cccc5c4C(=O)N(C4CCC(=O)NC4=O)C5=O)nn3)cc2)c(Br)cc1O (centres unmarked) [T44] | – | – | – | – | – | – | – | – | – | –
